Data published in PubChem BioAssay AID2060901 (Molecular Pharmacology Branch, DTP, NCI, 2025).

System: 422866-222-R5-J1-PDC complex spheroids viability
Test: Anticancer human tumor 422866-222-R5-J1-PDC patient-derived pancreatic adenocarcinoma cell line growth inhibition [RAS]
Details: for IC50: curve of first compound; for viability, T/C: stronger effect = lower value
In short: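 Multi-cell-type spheroids: tumor cells plus HUVEC endothelial cells and mesenchymal stem cells. RAS-pathway inhibitors were combined with targeted agents, each dosed in half-log steps down from clinical Cmax, or from 10 microM when Cmax was unknown.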
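Also: spheroids exposed to compounds for 7 days.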
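For viability, T/C in this document: 100% = DMSO vehicle control viability.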

In the case of `CC1(C)CCC(Nc2ncc(C(F)(F)F)c(-c3c[nH]c4c(P(C)(C)=O)c(C#N)ccc34)n2)CN1` (centres undefined) + CCn1c(-c2cc(N3CCN(C)CC3)cnc2C(C)OC)c2c3cc(ccc31)-c1csc(n1)CC(NC(=O)C1CC1C)C(=O)N1CCCC(N1)C(=O)OCC(C)(C)C2, the IC50 (second compound 0.000949 µM) is reported as under 0.949 nM, the IC50 (second compound 0.003 µM) is reported as under 0.949 nM and the IC50 (second compound 0.00949 µM) is reported as under 0.949 nM. The IC50 (second compound 0.03 µM) was under 0.949 nM, the IC50 (second compound 0.0949 µM) was under 0.949 nM and the IC50 (second compound 0.3 µM) was under 0.949 nM. For the same compound, the viability, T/C (second compound 0.000949 µM, first compound 0.000949 µM) was 30.6%, the viability, T/C (second compound 0.000949 µM, first compound 0.003 µM) was 29.6% and the viability, T/C (second compound 0.000949 µM, first compound 0.00949 µM) was 32.5%. The viability, T/C (second compound 0.000949 µM, first compound 0.03 µM) was 31.7%, the viability, T/C (second compound 0.000949 µM, first compound 0.0949 µM) was 30% and the viability, T/C (second compound 0.000949 µM, first compound 0.3 µM) was 33.4%. For the same compound, the viability, T/C (second compound 0.003 µM, first compound 0.000949 µM) was 24.3%, the viability, T/C (second compound 0.003 µM, first compound 0.003 µM) was 24% and the viability, T/C (second compound 0.003 µM, first compound 0.00949 µM) was 27.2%. It also gave a viability, T/C (second compound 0.003 µM, first compound 0.03 µM) of 27.5%, a viability, T/C (second compound 0.003 µM, first compound 0.0949 µM) of 26.9% and a viability, T/C (second compound 0.003 µM, first compound 0.3 µM) of 31.3%. It also gave a viability, T/C (second compound 0.00949 µM, first compound 0.000949 µM) of 21.2%, a viability, T/C (second compound 0.00949 µM, first compound 0.003 µM) of 21.1% and a viability, T/C (second compound 0.00949 µM, first compound 0.00949 µM) of 23.1%. It also gave a viability, T/C (second compound 0.00949 µM, first compound 0.03 µM) of 21.6%, a viability, T/C (second compound 0.00949 µM, first compound 0.0949 µM) of 25.4% and a viability, T/C (second compound 0.00949 µM, first compound 0.3 µM) of 24.8%. It also gave a viability, T/C (second compound 0.03 µM, first compound 0.000949 µM) of 22.2%, a viability, T/C (second compound 0.03 µM, first compound 0.003 µM) of 21.2% and a viability, T/C (second compound 0.03 µM, first compound 0.00949 µM) of 25.4%. It also gave a viability, T/C (second compound 0.03 µM, first compound 0.03 µM) of 23.5%, a viability, T/C (second compound 0.03 µM, first compound 0.0949 µM) of 25% and a viability, T/C (second compound 0.03 µM, first compound 0.3 µM) of 22.8%. For the same compound, the viability, T/C (second compound 0.0949 µM, first compound 0.000949 µM) was 19.1%, the viability, T/C (second compound 0.0949 µM, first compound 0.003 µM) was 22.9% and the viability, T/C (second compound 0.0949 µM, first compound 0.00949 µM) was 24.6%. It also gave a viability, T/C (second compound 0.0949 µM, first compound 0.03 µM) of 20.7%, a viability, T/C (second compound 0.0949 µM, first compound 0.0949 µM) of 23.1% and a viability, T/C (second compound 0.0949 µM, first compound 0.3 µM) of 28.9%. For the same compound, the viability, T/C (second compound 0.3 µM, first compound 0.000949 µM) was 19.7%, the viability, T/C (second compound 0.3 µM, first compound 0.003 µM) was 22.6% and the viability, T/C (second compound 0.3 µM, first compound 0.00949 µM) was 26.8%. It also gave a viability, T/C (second compound 0.3 µM, first compound 0.03 µM) of 24.1%, a viability, T/C (second compound 0.3 µM, first compound 0.0949 µM) of 28.1% and a viability, T/C (second compound 0.3 µM, first compound 0.3 µM) of 28.1%.

For `O=C(c1ccc(F)c(F)c1Nc1ccc(I)cc1F)N1CC(O)([C@@H]2CCCCN2)C1` + C#Cc1c(F)ccc2cc(O)cc(-c3ncc4c(N5CC6CCC(C5)N6)nc(OCC56CCCN5CC(F)C6)nc4c3F)c12, the IC50 (second compound 0.0316 µM) was 45.2 nM, the IC50 (second compound 0.1 µM) was 274 nM and the IC50 (second compound 0.316 µM) was 19.8 nM. For the same compound, the IC50 (second compound 1 µM) was 3.62 nM, the IC50 (second compound 3.16 µM) was under 3.16 nM and the IC50 (second compound 10 µM) was under 3.16 nM. The viability, T/C (second compound 0.0316 µM, first compound 0.00316 µM) was 70.1%, the viability, T/C (second compound 0.0316 µM, first compound 0.01 µM) was 82.2% and the viability, T/C (second compound 0.0316 µM, first compound 0.0316 µM) was 52.4%. It also gave a viability, T/C (second compound 0.0316 µM, first compound 0.1 µM) of 47.6%, a viability, T/C (second compound 0.0316 µM, first compound 0.316 µM) of 41.5% and a viability, T/C (second compound 0.0316 µM, first compound 1 µM) of 44.6%. For the same compound, the viability, T/C (second compound 0.1 µM, first compound 0.00316 µM) was 81.9%, the viability, T/C (second compound 0.1 µM, first compound 0.01 µM) was 71.6% and the viability, T/C (second compound 0.1 µM, first compound 0.0316 µM) was 65.8%. For the same compound, the viability, T/C (second compound 0.1 µM, first compound 0.1 µM) was 53.6%, the viability, T/C (second compound 0.1 µM, first compound 0.316 µM) was 49.1% and the viability, T/C (second compound 0.1 µM, first compound 1 µM) was 46.6%. It also gave a viability, T/C (second compound 0.316 µM, first compound 0.00316 µM) of 75.4%, a viability, T/C (second compound 0.316 µM, first compound 0.01 µM) of 53.2% and a viability, T/C (second compound 0.316 µM, first compound 0.0316 µM) of 46.7%. For the same compound, the viability, T/C (second compound 0.316 µM, first compound 0.1 µM) was 43.2%, the viability, T/C (second compound 0.316 µM, first compound 0.316 µM) was 34.9% and the viability, T/C (second compound 0.316 µM, first compound 1 µM) was 33.3%. The viability, T/C (second compound 1 µM, first compound 0.00316 µM) was 50%, the viability, T/C (second compound 1 µM, first compound 0.01 µM) was 45.3% and the viability, T/C (second compound 1 µM, first compound 0.0316 µM) was 31.3%. The viability, T/C (second compound 1 µM, first compound 0.1 µM) was 32.1%, the viability, T/C (second compound 1 µM, first compound 0.316 µM) was 26.9% and the viability, T/C (second compound 1 µM, first compound 1 µM) was 26.4%. The viability, T/C (second compound 3.16 µM, first compound 0.00316 µM) was 38.2%, the viability, T/C (second compound 3.16 µM, first compound 0.01 µM) was 26.1% and the viability, T/C (second compound 3.16 µM, first compound 0.0316 µM) was 24.6%. The viability, T/C (second compound 3.16 µM, first compound 0.1 µM) was 24%, the viability, T/C (second compound 3.16 µM, first compound 0.316 µM) was 19.9% and the viability, T/C (second compound 3.16 µM, first compound 1 µM) was 15.7%. For the same compound, the viability, T/C (second compound 10 µM, first compound 0.00316 µM) was 19.8%, the viability, T/C (second compound 10 µM, first compound 0.01 µM) was 17.8% and the viability, T/C (second compound 10 µM, first compound 0.0316 µM) was 17.9%. For the same compound, the viability, T/C (second compound 10 µM, first compound 0.1 µM) was 14%, the viability, T/C (second compound 10 µM, first compound 0.316 µM) was 12.2% and the viability, T/C (second compound 10 µM, first compound 1 µM) was 14.2%.
